Test results: ChEMBL document CHEMBL5346923, “Novel pyridinium cationic pleuromutilin analogues overcoming bacterial multidrug resistance” (Eur J Med Chem, 2023)
Active and inactive are the calls of the source. The calls are words filed in the database; no cut-off is given here.

How the values were obtained:
Staphylococcus aureus [1] = test: Antibacterial activity against methicillin-resistant Staphylococcus aureus ATCC 43300 assessed as inhibition of bacterial growth measured after 24 hrs by MH broth based assay; format: functional
Aerococcus viridans = test: Antibacterial activity against clinical isolate Aerococcus viridans harbouring optrA and ErmA gene assessed as inhibition of bacterial growth measured after 24 hrs by MH broth based assay; format: functional
Staphylococcus aureus [2] = test: Antibacterial activity against clinical isolate Staphylococcus aureus harbouring cfr gene assessed as inhibition of bacterial growth measured after 24 hrs by MH broth based assay; format: functional
Staphylococcus aureus [3] = test: Antibacterial activity against methicillin-resistant Staphylococcus aureus […] assessed as post antibacterial effect by measuring time required for increase in log10 CFU/ml of bacteria at 2 times of MIC incubated for 1 hr by MH broth based assay; format: functional
Staphylococcus aureus [4] = test: Antibacterial activity against multi-drug resistant Staphylococcus aureus sa1 infected in BABL/C mouse assessed as survival rate at 10 mg/kg, ip measured upto 7 days; format: functional; conditions: sa1, 168 h, time <= 7 day
Staphylococcus aureus [5] = test: Potency index, ratio of tiamulin MIC to compound […] for antibacterial activity against clinical isolate multi-drug resistant Staphylococcus aureus sal; format: functional
[6] = system: Staphylococcus epidermidis; test: Antibacterial activity against methicillin-resistant Staphylococcus epidermidis ATCC 51625 assessed as inhibition of bacterial growth measured after 24 hrs by MH broth based assay; format: functional
Klebsiella pneumoniae = test: Antibacterial activity against Klebsiella pneumonia CMCC (B) 46117 assessed as inhibition of bacterial growth measured after 24 hrs by MH broth based assay; format: functional
Enterococcus lactis = test: Antibacterial activity against clinical isolate Enterococcus lactis assessed as inhibition of bacterial growth measured after 24 hrs by MH broth based assay; format: functional
Proteus = test: Antibacterial activity against Proteus CMCC (B) 49027 assessed as inhibition of bacterial growth measured after 24 hrs by MH broth based assay; format: functional
Staphylococcus aureus [7] = test: Antibacterial activity against methicillin-resistant Staphylococcus aureus […] assessed as post antibacterial effect by measuring time required for increase in log10 CFU/ml of bacteria at 4 times of MIC incubated for 1 hr by MH broth based assay; format: functional
HepG2 = test: Cytotoxicity against human HepG2 cells assessed as reduction in cell viability at 7.5 to 1000 ug/ml incubated for 6 hrs by CCK-8 assay; format: toxicity, cell-based; conditions: hepg2, 6 h, dose 7.5-1000 µg/ml
Staphylococcus aureus [8] = test: Antibacterial activity against Staphylococcus aureus ATCC 29213 assessed as inhibition of bacterial growth measured after 24 hrs by MH broth based assay; format: functional
Staphylococcus aureus [9] = test: Antibacterial activity against clinical isolate Staphylococcus aureus harbouring blaZ gene assessed as inhibition of bacterial growth measured after 24 hrs by MH broth based assay; format: functional
Cell membrane = test: Disruption of membrane integrity in Staphylococcus aureus ATCC 29213 assessed as induction of cell membrane perforation at 1 to 4 ug/ml incubated for 60 mins by ONPG reagent based analysis; format: subcellular; conditions: dose 1-4 µg/ml
Escherichia coli [10] = test: Antibacterial activity against Escherichia coli ATCC 25922 assessed as inhibition of bacterial growth measured after 24 hrs by MH broth based assay; format: functional
Staphylococcus aureus [11] = test: Antibacterial activity against Staphylococcus aureus ATCC 29213 assessed as induction of bacterial fragmentation at 1 times of MIC by SEM analysis; format: functional, organism-based
Escherichia coli [12] = test: Antibacterial activity against Escherichia coli MG1655 assessed as inhibition of bacterial growth measured after 24 hrs by MH broth based assay; format: functional
Streptococcus parasuis = test: Antibacterial activity against clinical isolate Streptococcus parasuis harbouring InuD gene assessed as inhibition of bacterial growth measured after 24 hrs by MH broth based assay; format: functional
[13] = Toxicity in po dosed BABL/C mouse assessed as lethal dose measured upto 14 days; format: organism-based; conditions: in vivo, time < 14 day
Escherichia coli [14] = test: Antibacterial activity against clinical isolate Escherichia coli harbouring NDM-17 gene assessed as inhibition of bacterial growth measured after 24 hrs by MH broth based assay; format: functional
Staphylococcus aureus [15] = test: Antibacterial activity against multi-drug resistant Staphylococcus aureus sa1 infected in BABL/C mouse assessed as reduction in bacterial load in lungs at 20 mg/kg, ip measured after 2 days; format: functional; conditions: time 2 day
Staphylococcus aureus [16] = test: Antibacterial activity against clinical isolate Staphylococcus aureus harbouring tet38 gene assessed as inhibition of bacterial growth measured after 24 hrs by MH broth based assay; format: functional
Escherichia coli [17] = test: Antibacterial activity against Escherichia coli MG1655 harbouring acrB gene assessed as inhibition of bacterial growth measured after 24 hrs by MH broth based assay; format: functional

For `C=C[C@]1(C)C[C@@H](OC(=O)CSc2cc[n+](CCCCCCC)cc2)[C@]2(C)[C@H](C)CC[C@]3(CCC(=O)[C@H]32)[C@@H](C)[C@@H]1O.[I-]`, the MIC (Staphylococcus aureus [1]) was 0.063 µg/mL, the MIC (Aerococcus viridans) was 2 µg/mL and the MIC (Staphylococcus aureus [2]) was 8 µg/mL. For the same compound, the Time (Staphylococcus aureus [3]) was 2.31 h, the survival at 10 mg/kg (Staphylococcus aureus [4]) was 66% and the Ratio (Staphylococcus aureus [5]) was 96. For the same compound, the MIC [6] was 0.063 µg/mL, the MIC (Klebsiella pneumoniae) was 2 µg/mL and the MIC (Enterococcus lactis) was 32 µg/mL. For the same compound, the MIC (Proteus) was 32 µg/mL, the Time (Staphylococcus aureus [7]) was 2.56 h and the Activity (HepG2) was “Non-Toxic”. For the same compound, the MIC (Staphylococcus aureus [8]) was 0.063 µg/mL, the MIC (Staphylococcus aureus [9]) was 0.063 µg/mL and the Activity (Cell membrane) was “Active”. The MIC (Escherichia coli [10]) was 32 µg/mL, the Activity (Staphylococcus aureus [11]) was “Active” and the MIC (Escherichia coli [12]) was 32 µg/mL. It also gave an MIC (Streptococcus parasuis) of 16 µg/mL, an LD50 at 336 h [13] of 879 mg/kg and an MIC (Escherichia coli [14]) of 16 µg/mL. The Activity (Staphylococcus aureus [15]) was 3.29 log10CFU/ml, the MIC (Staphylococcus aureus [16]) was 0.125 µg/mL and the MIC (Escherichia coli [17]) was 0.5 µg/mL.
